Source: PubChem BioAssay (NCI)
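Step 1: Grow cells in 96-well plates. Step 2: Expose to compound for 48 hours at 5 concentrations. Step 3: Interpolate endpoints linearly; if unreached, use highest concentration. TGI is the concentration that stops growth completely.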

Legend:
Experiment in all cases: DTP human tumour cell line panel, 48 h
MOLT-4 leukemia = test system: MOLT-4 leukemia
HCC-2998 colon = test system: HCC-2998 colon
SNB-78 CNS = test system: SNB-78 CNS
SK-OV-3 ovarian = test system: SK-OV-3 ovarian
LOX IMVI melanoma = test system: LOX IMVI melanoma
SN12C renal = test system: SN12C renal
SW-620 colon = test system: SW-620 colon
M14 melanoma = test system: M14 melanoma
SK-MEL-28 melanoma = test system: SK-MEL-28 melanoma
CCRF-CEM leukemia = test system: CCRF-CEM leukemia
IGROV1 ovarian = test system: IGROV1 ovarian
SNB-75 CNS = test system: SNB-75 CNS
HCT-15 colon = test system: HCT-15 colon
LXFL 529 NSCLC = test system: LXFL 529 NSCLC
U251 CNS = test system: U251 CNS
786-0 renal = test system: 786-0 renal
K-562 leukemia = test system: K-562 leukemia
NCI-H23 lung = test system: NCI-H23 lung
OVCAR-8 ovarian = test system: OVCAR-8 ovarian
SK-MEL-5 melanoma = test system: SK-MEL-5 melanoma
DLD-1 colon = test system: DLD-1 colon
EKVX NSCLC = test system: EKVX NSCLC
COLO 205 colon = test system: COLO 205 colon
HT29 colon = test system: HT29 colon
M19-MEL melanoma = test system: M19-MEL melanoma
NCI-H460 lung = test system: NCI-H460 lung
ACHN renal = test system: ACHN renal
SR leukemia = test system: SR leukemia
SF-268 CNS = test system: SF-268 CNS
SF-539 CNS = test system: SF-539 CNS
OVCAR-4 ovarian = test system: OVCAR-4 ovarian
A549 NSCLC = test system: A549 NSCLC
DMS 273 small cell lung = test system: DMS 273 small cell lung
SF-295 CNS = test system: SF-295 CNS
XF 498 CNS = test system: XF 498 CNS
OVCAR-3 ovarian = test system: OVCAR-3 ovarian
UACC-62 melanoma = test system: UACC-62 melanoma
A498 renal = test system: A498 renal
RXF 393 renal = test system: RXF 393 renal
DMS 114 small cell lung = test system: DMS 114 small cell lung
KM12 colon = test system: KM12 colon
TK-10 renal = test system: TK-10 renal
MALME-3M melanoma = test system: MALME-3M melanoma
RPMI-8226 leukemia = test system: RPMI-8226 leukemia
KM20L2 colon = test system: KM20L2 colon
HOP-92 NSCLC = test system: HOP-92 NSCLC
NCI-H226 lung = test system: NCI-H226 lung
HL-60(TB) leukemia = test system: HL-60(TB) leukemia
UACC-257 melanoma = test system: UACC-257 melanoma
SNB-19 CNS = test system: SNB-19 CNS
OVCAR-5 ovarian = test system: OVCAR-5 ovarian
UO-31 renal = test system: UO-31 renal
HOP-62 NSCLC = test system: HOP-62 NSCLC
CAKI-1 renal = test system: CAKI-1 renal
HCT-116 colon = test system: HCT-116 colon
NCI-H522 lung = test system: NCI-H522 lung

Measured: TGI

O=C1C2c3[nH]c4ccccc4c3C3CCCC3C2C(=O)N1c1ccccc1 (stereo not drawn)
not listed: KM20L2 colon | HOP-92 NSCLC | NCI-H226 lung | HL-60(TB) leukemia | UACC-257 melanoma | SNB-19 CNS | OVCAR-5 ovarian | UO-31 renal | HOP-62 NSCLC | CAKI-1 renal | HCT-116 colon | NCI-H522 lung
> 100 µM: all other assays above

O=C1NC2C(=O)N(Cc3ccccc3)C(=O)C2N1 (stereo not drawn)
not listed: OVCAR-8 ovarian | DMS 273 small cell lung
> 100 µM: all other assays above
